From US9265784B2, “Antineoplastic combinations of 4-anilino-3-cyanoquinolines and capecitabine” (WYETH LLC, priority 2008, dated 2016)
Like-named read-outs stand apart in the source and are kept apart here.

Experiments:
Format in all cases: in vivo, human
[1] = Ongoing phase 2 study of neratinib 240 mg daily oral, adverse events
Method: (§1) In an ongoing phase 2 study, neratinib is being administered as daily oral doses of 240 mg in subjects with erbB-2-overexpressing advanced or metastatic breast cancer, who received up to 4 prior cytotoxic chemotherapy treatment regimens, with prior trastuzumab therapy for metastatic or locally advanced disease (≧6 weeks) or with no prior exposure to erbB-2-targeted treatment. Preliminary results were obtained for 124 subjects evaluable for efficacy based on independent assessment and 131 subjects evaluable per investigator assessment. […] Median Progression Free Survival (PFS) for independent (and investigator) assessment was 23 (22), with a 16-week PFS rate of 61% (57%) in subjects who had received prior trastuzumab. For trastuzumab naïve subjects, PFS per independent (and investigator) assessment was 40 (35), with a 16-week PFS rate of 75% (78%).
The predominant AE was diarrhea, which was reversible and generally manageable by medication, temporary discontinuation of treatment, or dose reduction. Diarrhea that was considered related to neratinib occurred with a frequency of 94% of the subjects. Of those, grade 3-4 diarrhea was experienced by 25% of the subjects. Other common AEs were nausea (related to neratinib in 30%, grade 3-4 in 2% of the subjects), vomiting (related in 23%, grade 3-4 in 2%), fatigue (related in 20%, grade 3-4 in <2%), and anorexia (related in 16%, grade 3-4 in 4%). […] Presented at the Poster presented at the SABCS, San Antonio, USA].

[2] = Preliminary pharmacokinetic analyses of neratinib after oral administration; conditions: for AUC / Cmax: oral daily; for AUC: read-out: Mean steady-state AUC; for Cmax: read-out: Mean steady-state Cmax
Text: The mean accumulation ratio was 1.2 after a 240-mg dose, indicating no significant accumulation of neratinib after repeated daily dose administration at the dose to be used in this proposed trial.
The data indicated a slow distribution of neratinib with a large apparent volume of distribution (Vz/F on day 1: about 3188 to 6181 L) after oral absorption. […] There was moderate to large variability in neratinib t1/2, Cmax, and AUC; coefficients of variation (CVs) generally ranged from 8% to 90%.

[3] = test system: erbB-2-overexpressing advanced or metastatic breast cancer; experiment: Ongoing phase 2 study of neratinib 240 mg daily oral, efficacy
Method: as §1

[4] = human, in vivo, 400 mg (highest dose)
[5] = human, in vivo, 180-mg dose group
[6] = human, in vivo, 240-mg dose group
[7] = human, in vivo, 320-mg dose group
[8] = prior trastuzumab, independent assessment
[9] = prior trastuzumab, investigator assessment
[10] = trastuzumab naïve subjects, independent assessment
[11] = trastuzumab naïve subjects, investigator assessment

## CCOc1cc2ncc(C#N)c(Nc3ccc(OCc4ccccn4)c(Cl)c3)c2cc1NC(=O)/C=C/CN(C)C [neratinib, (2E)-N-[4-[[3-chloro-4-[(pyridin-2-yl)methoxy]phenyl]amino]-3-cyano-7-ethoxyquinolin-6-yl]-4-(dimethylamino)but-2-enamide]
[1]; 240 mg daily oral
  Diarrhea considered related to neratinib, frequency of subjects: 94%
  anorexia grade 3-4, subjects: 4%
  anorexia related, subjects: 16%
  fatigue grade 3-4, subjects: < 2%
  fatigue related, subjects: 20%
  grade 3-4 diarrhea, subjects: 25%
  nausea grade 3-4, subjects: 2%
  nausea related to neratinib, subjects: 30%
  vomiting grade 3-4, subjects: 2%
  vomiting related, subjects: 23%
[1]; daily oral doses of 240 mg
  tolerability: generally well tolerated
[2]; after a 240-mg dose, repeated daily administration
  mean accumulation ratio: 1.2
[2]; after oral administration
  dose dependence of Cmax and AUC: increased in a dose-dependent manner
[2]; [4]
  AUC: 1700 ng·h/mL
  Cmax: 105 ng/mL
[2]; [5]
  AUC: 975 ng·h/mL
  Cmax: 70.1 ng/mL
[2]; [6]
  AUC: 939 ng·h/mL
  Cmax: 73.5 ng/mL
[2]; [7]
  AUC: 1330 ng·h/mL
  Cmax: 90.4 ng/mL
[2]; human, in vivo, day 1, after oral absorption, read-out: apparent volume of distribution (Vz/F)
  Vd/F: 3190 to 6180 L
[2]; human, in vivo, oral administration, day 1, read-out: mean apparent terminal half-life (t1/2)
  half-life: 13 to 17 h
[2]; oral
  absorption: relatively slow
[3]; [8]
  16-week PFS rate: 61%
  Median Progression Free Survival (PFS): 23
[3]; [9]
  16-week PFS rate: 57%
  Median Progression Free Survival (PFS): 22
[3]; subjects with erbB-2-positive advanced breast cancer, 240 mg daily oral
  antitumor activity: significant antitumor activity
[3]; subjects with prior trastuzumab containing therapy in the metastatic setting, independently assessed, 240 mg daily oral
  ORR: 26%
[3]; subjects with prior trastuzumab containing therapy in the metastatic setting, investigator assessed, 240 mg daily oral
  ORR: 35%
[3]; [10]
  16-week PFS rate: 75%
  PFS: 40
[3]; trastuzumab naïve subjects, independently assessed, 240 mg daily oral
  ORR: 51%
[3]; trastuzumab naïve subjects, investigator assessed, 240 mg daily oral
  ORR: 62%
[3]; [11]
  16-week PFS rate: 78%
  PFS: 35
